From patent publication US20240368181A1, “QUINOXALINE DERIVATIVES AND USES THEREOF” (Black Diamond Therapeutics, Inc., priority 2021, published 2024)
pIC50: −log10 of the molar value.

What was measured:
Format in all cases: cell-based
[1] = test system: SNU-16 (FGFR2-amplification) cells; test: Cell proliferation assay (CellTiterGlo), SNU-16 cells; details: Homo sapiens, SNU-16, 72 h, inhibition of cell growth, intracellular ATP (CellTiterGlo)
Source text: (§1) The following is a non-limiting example that describes a cell proliferation assay used to determine the biological activity of the compounds of the present disclosure. More specifically, the assay as used to assess the ability of the compounds to inhibit cell proliferation.
(§2) Briefly, SNU-16 (FGFR2-amplification) cells, were resuspended at 18,520c/ml mL in RPMI containing 10% Heat Inactivated FBS, 1% L-glutamine and dispensed in duplicate (463c/well) into 384 well plates. UM-UC-14 (FGFR3-S249C) cells were resuspended at 40.000c/ml mL in RPMI containing 10% Heat Inactivated FBS, 1% L-glutamine and dispensed in duplicate (1000c/well) into 384 well plates. DMS-114 (FGFR1 overexpression) cells and were resuspended at 40,000c/ml mL in RPMI containing 10% Heat Inactivated FBS, 1% L-glutamine and dispensed in duplicate (1000c/well) into 384 well plates. RT-112 (FGFR3-Tacc3 fusion) cells were resuspended at 40,000c/ml mL in RPMI containing 10% Heat Inactivated FBS, 1% L-glutamine and dispensed in duplicate (1000c/well) into 384 well plates. To determine the effect of the compounds of the present disclosure on cell proliferation, SNU-16, UM-UC-14, DMS-114 and RT112 cells were incubated for 72 hours in the presence of vehicle control (DMSO) or a compound of the present disclosure at varying concentrations. Inhibition of cell growth was subsequently determined by luminescent quantification (Envision by Perkin Elmer) of intracellular ATP content using CellTiterGlo (Promega), according to the protocol provided by the manufacturer. To determine the IC50 values, the vehicle-treated cells were normalized as viable cells and analyzed using the CDD Vault software (Collaborative Drug Discovery, Burlingame, CA).

[2] = test system: RT-112 (FGFR3-Tacc3 fusion) cells; test: Cell proliferation assay (CellTiterGlo), RT-112 cells; details: RT112 cells, inhibition of cell growth, intracellular ATP (CellTiterGlo)
Source text: as §1, §2

[3] = test system: UM-UC-14 (FGFR3-S249C) cells; test: Cell proliferation assay (CellTiterGlo), UM-UC-14 cells; details: inhibition of cell growth, intracellular ATP (CellTiterGlo)
Source text: as §1, §2

[4] = test system: DMS-114 (FGFR1 overexpression) cells; test: Cell proliferation assay (CellTiterGlo), DMS-114 cells; details: 72 hours, inhibition of cell growth, intracellular ATP (CellTiterGlo)
Source text: as §1, §2

Structure (SMILES) | pIC50 [1] | pIC50 ([2]; Homo sapiens, RT-112, 72 h) | pIC50 ([3]; UMUC14, 72 h) | pIC50 ([4]; Homo sapiens) | pIC50 ([2]; 72 hours) | pIC50 ([3]; 72 hours) | pIC50 [4]
Cc1nc2ccc(Oc3ccc4ncc(-c5cnn(CC6COC6)c5)nc4c3Cl)cc2[nH]1 [Compound 17] | ≤ 6.40 | ≤ 6.40 | ≤ 6.40 | ≤ 6.40 | – | – | –
Cc1nc2ccc(Oc3ccc4ncc(-c5cnn(CC6CCN(C)C(=O)C6)c5)nc4c3Cl)cc2[nH]1 (stereo not drawn) [Compound 20] | 7.00 to 7.70 | 7.00 to 7.70 | 7.00 to 7.70 | ≤ 6.40 | – | – | –
Cc1nc2ccc(Oc3ccc4ncc(-c5cnn(CC(O)CO)c5)nc4c3Cl)cc2[nH]1 (stereo not drawn) [Compound 22] | 7.00 to 7.70 | 7.00 to 7.70 | 6.40 to 7.00 | ≤ 6.40 | – | – | –
CCC(=O)N1CCC(Cn2cc(-c3cnc4ccc(Oc5ccc6nc(C)[nH]c6c5)c(Cl)c4n3)cn2)CC1 [Compound 25] | > 7.70 | > 7.70 | 7.00 to 7.70 | 6.40 to 7.00 | – | – | –
Cc1nc2ccc(Oc3ccc4ncc(-c5cnn(C6CCN(C)C6)c5)nc4c3Cl)cc2[nH]1 (stereo not drawn) [Compound 26] | > 7.70 | > 7.70 | 7.00 to 7.70 | 6.40 to 7.00 | – | – | –
Cc1nc2ccc(Oc3ccc4ncc(-c5cnn(C6CCNC6)c5)nc4c3Cl)cc2[nH]1 (stereo not drawn) [Compound 27] | 6.40 to 7.00 | 7.00 to 7.70 | 7.00 to 7.70 | ≤ 6.40 | – | – | –
Cc1nc2ccc(Oc3ccc4ncc(-c5cnn(CC6CCN(S(=O)(=O)CC#N)CC6)c5)nc4c3Cl)cc2[nH]1 [Compound 28] | 7.00 to 7.70 | 7.00 to 7.70 | 7.00 to 7.70 | 6.40 to 7.00 | – | – | –
COC(=O)CS(=O)(=O)N1CCC(Cn2cc(-c3cnc4ccc(Oc5ccc6nc(C)[nH]c6c5)c(Cl)c4n3)cn2)CC1 [Compound 29] | ≤ 6.40 | 6.40 to 7.00 | ≤ 6.40 | ≤ 6.40 | – | – | –
COCCN1CCC(Cn2cc(-c3cnc4ccc(Oc5ccc6nc(C)[nH]c6c5)c(Cl)c4n3)cn2)CC1 [Compound 30] | > 7.70 | > 7.70 | > 7.70 | 6.40 to 7.00 | – | – | –
Cc1nc2ccc(Oc3ccc4ncc(-c5cnn(CC6CCN(C)CC6)c5C)nc4c3Cl)cc2[nH]1 [Compound 31] | 7.00 to 7.70 | 7.00 to 7.70 | 7.00 to 7.70 | 6.40 to 7.00 | – | – | –
Cc1nc2ccc(Oc3ccc4ncc(-c5cn(CC6CCN(C)CC6)nc5C)nc4c3Cl)cc2[nH]1 [Compound 32] | 7.00 to 7.70 | 7.00 to 7.70 | 7.00 to 7.70 | ≤ 6.40 | – | – | –
Cc1nc2ccc(Oc3ccc4ncc(-c5cnn(CC6CCN(S(C)(=O)=O)CC6)c5)nc4c3Cl)cc2n1S(C)(=O)=O [Compound 33] | 7.00 to 7.70 | 7.00 to 7.70 | 6.40 to 7.00 | ≤ 6.40 | – | – | –
Cc1nc2ccc(Oc3ccc4ncc(-c5cnn(CC6CCN(C)CC6)c5)nc4c3F)cc2[nH]1 [Compound 36] | 6.40 to 7.00 | 6.40 to 7.00 | 6.40 to 7.00 | ≤ 6.40 | – | – | –
Cc1nc2ccc(Oc3ccc4ncc(-c5cnn(CC6CCN(S(=O)(=O)CC(C)C)CC6)c5)nc4c3Cl)cc2[nH]1 [Compound 37] | 7.00 to 7.70 | 7.00 to 7.70 | 7.00 to 7.70 | 6.40 to 7.00 | – | – | –
C=CC(=O)N1CCC(Cn2cc(-c3cnc4ccc(Oc5ccc6nc(C)[nH]c6c5)c(Cl)c4n3)cn2)CC1 [Compound 38] | 7.00 to 7.70 | > 7.70 | 7.00 to 7.70 | 6.40 to 7.00 | – | – | –
C=CC(=O)N1CCC(CCn2cc(-c3cnc4ccc(Oc5ccc6nc(C)[nH]c6c5)c(Cl)c4n3)cn2)CC1 [Compound 39] | 7.00 to 7.70 | 7.00 to 7.70 | 7.00 to 7.70 | 6.40 to 7.00 | – | – | –
Cc1nc2c(C#N)cc(Oc3ccc4ncc(-c5cnn(CC6CCN(C)CC6)c5)nc4c3Cl)cc2[nH]1 [Compound 41] | 6.40 to 7.00 | 6.40 to 7.00 | 6.40 to 7.00 | ≤ 6.40 | – | – | –
Cc1nc2ccc(Oc3ccc4ncc(-c5cnn(CC6CCN(S(C)(=O)=O)CC6)c5)nc4c3Cl)cc2[nH]1 [Compound 43] | 7.00 to 7.70 | 7.00 to 7.70 | 7.00 to 7.70 | ≤ 6.40 | – | – | –
COc1cc(Oc2ccc3ncc(-c4cnn(CC5CCN(C)CC5)c4)nc3c2Cl)cc2[nH]c(C)nc12 [Compound 46] | 6.40 to 7.00 | 6.40 to 7.00 | ≤ 6.40 | ≤ 6.40 | – | – | –
Cc1nc2ccc(Oc3cc4nc(-c5cnn(CC6CCOCC6)c5)cnc4cc3Cl)cc2[nH]1 [Compound 48] | ≤ 6.40 | ≤ 6.40 | ≤ 6.40 | ≤ 6.40 | – | – | –
Cc1nc2ccc(Oc3cc4nc(-c5cnn(CC6CCN(C)CC6)c5)cnc4cc3F)cc2[nH]1 [Compound 49] | ≤ 6.40 | ≤ 6.40 | ≤ 6.40 | ≤ 6.40 | – | – | –
Cc1nc2ccc(Oc3cc4nc(-c5cnn(CC6CCN(C)CC6)c5)cnc4cc3C)cc2[nH]1 [Compound 50] | ≤ 6.40 | ≤ 6.40 | ≤ 6.40 | ≤ 6.40 | – | – | –
Cc1nc2ccc(Oc3ccc4ncc(-c5cn[nH]c5)nc4c3Cl)cc2[nH]1 [Compound 51] | ≤ 6.40 | 6.40 to 7.00 | ≤ 6.40 | ≤ 6.40 | – | – | –
Cc1nc2ccc(Oc3ccc4ncc(-c5cnn(CC6CCOCC6)c5)nc4c3Cl)cc2[nH]1 [Compound 59] | > 7.70 | – | – | – | > 7.70 | > 7.70 | 6.40 to 7.00

More lines, main results first:

pIC50 [1] | Structure (SMILES) | pIC50 ([2]; Homo sapiens, RT-112, 72 h) | pIC50 ([3]; UMUC14, 72 h) | pIC50 ([4]; Homo sapiens) | pIC50 ([2]; 72 hours) | pIC50 ([3]; 72 hours) | pIC50 [4]
6.40 to 7.00 | Cc1nc2ccc(Oc3ccc4ncc(-c5cnn(CC6CNC6)c5)nc4c3Cl)cc2[nH]1 [Compound 16] | 6.40 to 7.00 | 6.40 to 7.00 | ≤ 6.40 | – | – | –
7.00 to 7.70 | Cc1nc2ccc(Oc3ccc4ncc(-c5cnn(CC6CCN(C(=O)C(F)(F)F)CC6)c5)nc4c3Cl)cc2[nH]1 [Compound 18] | 7.00 to 7.70 | 7.00 to 7.70 | ≤ 6.40 | – | – | –
6.40 to 7.00 | Cc1nc2ccc(Oc3ccc4ncc(-c5cnn(C)c5)nc4c3Cl)cc2[nH]1 [Compound 19] | 7.00 to 7.70 | 6.40 to 7.00 | ≤ 6.40 | – | – | –
7.00 to 7.70 | Cc1nc2ccc(Oc3ccc4ncc(-c5cnn(C6CCNCC6)c5)nc4c3Cl)cc2[nH]1 [Compound 21] | > 7.70 | 7.00 to 7.70 | 6.40 to 7.00 | – | – | –
> 7.70 | Cc1nc2ccc(Oc3ccc4ncc(-c5cnn(CC6CCN(CCO)CC6)c5)nc4c3Cl)cc2[nH]1 [Compound 23] | > 7.70 | > 7.70 | 6.40 to 7.00 | – | – | –
> 7.70 | Cc1nc2ccc(Oc3ccc4ncc(-c5cnn(CC6CCN(C(C)C)CC6)c5)nc4c3Cl)cc2[nH]1 [Compound 24] | > 7.70 | > 7.70 | 6.40 to 7.00 | – | – | –
> 7.70 | Cc1nc2ccc(Oc3ccc4ncc(-c5cnn(CC6CCN(C7COC7)CC6)c5)nc4c3Cl)cc2[nH]1 [Compound 35] | > 7.70 | 7.00 to 7.70 | ≤ 6.40 | – | – | –
7.00 to 7.70 | Cc1nc2ccc(Oc3ccc4ncc(-c5cnn(CC6CCN(S(=O)(=O)C(C)C)CC6)c5)nc4c3Cl)cc2[nH]1 [Compound 40] | 7.00 to 7.70 | 7.00 to 7.70 | ≤ 6.40 | – | – | –
7.00 to 7.70 | Cc1nc2ccc(Oc3ccc4ncc(-c5cnn(CC6CCN(S(=O)(=O)C7CC7)CC6)c5)nc4c3Cl)cc2[nH]1 [Compound 42] | 7.00 to 7.70 | 7.00 to 7.70 | ≤ 6.40 | – | – | –
6.40 to 7.00 | Cc1nc2ccc(Oc3ccc4ncc(-c5cnn(CC6CC6)c5)nc4c3Cl)cc2[nH]1 [Compound 44] | 6.40 to 7.00 | 6.40 to 7.00 | ≤ 6.40 | – | – | –
7.00 to 7.70 | Cc1nc2ccc(Oc3ccc4ncc(-c5cnn(CC6CCN(C)CC6)c5)nc4c3C)cc2[nH]1 [Compound 45] | 7.00 to 7.70 | 7.00 to 7.70 | 6.40 to 7.00 | – | – | –
6.40 to 7.00 | Cc1nc2ccc(Oc3ccc4ncc(-c5c(C)nn(CC6CCN(C)CC6)c5C)nc4c3Cl)cc2[nH]1 [Compound 52] | 6.40 to 7.00 | 6.40 to 7.00 | ≤ 6.40 | – | – | –
6.40 to 7.00 | Cc1nc2ccc(Oc3ccc4ncc(-c5cnn(CCC6CCN(C)CC6)c5)nc4c3)cc2[nH]1 [Compound 55] | 6.40 to 7.00 | 6.40 to 7.00 | ≤ 6.40 | – | – | –
≤ 6.40 | Cc1nc2c(C#N)cc(Oc3ccc4ncc(-c5cnn(CC6CCOCC6)c5)nc4c3)cc2[nH]1 [Compound 60] | ≤ 6.40 | ≤ 6.40 | ≤ 6.40 | – | – | –
≤ 6.40 | COc1cc(Oc2ccc3ncc(-c4cnn(CC5CCOCC5)c4)nc3c2)cc2[nH]c(C)nc12 [Compound 61] | ≤ 6.40 | ≤ 6.40 | ≤ 6.40 | – | – | –
